ChEMBL document CHEMBL2016438, “Design and synthesis of naphthoquinone derivatives as antiproliferative agents and 20S proteasome inhibitors” (Bioorg Med Chem Lett, 2012)
The source made the active and inactive calls. No cut-off for these calls is given here.

Columns and labels:
A549 [1] = assay: Antiproliferative activity against human A549 cells; format: functional, cell-based
DU-145 [2] = assay: Antiproliferative activity against human DU145 cells; format: functional, cell-based
KB [3] = assay: Antiproliferative activity against human KB cells; format: functional, cell-based
[4] = Antiproliferative activity against human KBVIN cells; format: functional, cell-based
HeLa-GFP = assay: Inhibition of proteasome in human HeLa-GFP cells at 10 ug/ml
[5] = Inhibition of chymotrypsin-like activity of human 20s proteasome
A549 [6] = assay: Antiproliferative activity against human A549 cells at 10 ug/ml; format: functional, cell-based
DU-145 [7] = assay: Antiproliferative activity against human DU145 cells at 10 ug/ml; format: functional, cell-based
KB [8] = assay: Antiproliferative activity against human KB cells at 10 ug/ml; format: functional, cell-based
KBVIN = assay: Antiproliferative activity against human KBVIN cells at 10 ug/ml; format: functional, cell-based

SMILES | IC50 (A549 [1]) | IC50 (DU-145 [2]) | IC50 (KB [3]) | IC50 [4] | inhibition (HeLa-GFP) | IC50 [5] | inhibition (A549 [6]) | inhibition (DU-145 [7]) | inhibition (KB [8]) | inhibition (KBVIN)
O=C1C(Cl)=C(Nc2ccc([N+](=O)[O-])cc2)C(=O)c2ccccc21 | 23.2 µM | 18.3 µM | 16.6 µM | 18.3 µM | Active | 3.65 µM |  |  |  | 
O=C(Nc1ccccn1)c1ccc(NC2=C(Cl)C(=O)c3ccccc3C2=O)cc1 |  |  |  |  |  |  | inactive | inactive | inactive | inactive
COc1ccc(C(=O)Nc2ccc(NC3=C(Cl)C(=O)c4ccccc4C3=O)cc2)cc1 |  |  |  |  |  |  | inactive | inactive | inactive | inactive
O=C(NCCc1ccccc1)c1ccc(NC2=C(Cl)C(=O)c3ccccc3C2=O)cc1 |  |  |  |  |  |  | inactive | inactive | inactive | inactive
COc1cc(NC(=O)c2ccc(NC3=C(Cl)C(=O)c4ccccc4C3=O)cc2)cc(OC)c1 | 9.64 µM | 10.5 µM | 10.4 µM | 11.3 µM | inactive |  |  |  |  | 
CC(=O)N[C@@H](CSC(=O)[C@]1([C@@H](O)C(C)C)NC(=O)[C@H](C)[C@@H]1O)C(=O)O [LACTACYSTIN] |  |  |  |  |  | 10.1 µM |  |  |  | 
O=C1C(Cl)=C(Nc2ccc(N3CCOCC3)cc2)C(=O)c2ccccc21 | 18.8 µM | 15.8 µM | 12.9 µM | 14.2 µM | inactive |  |  |  |  | 
O=C1C(Cl)=C(Nc2ccc(C(=O)N3CCOCC3)cc2)C(=O)c2ccccc21 | 12.5 µM | 13.7 µM | 14 µM | 14.5 µM | inactive |  |  |  |  | 
O=C1C(Cl)=C(Nc2ccc3c(c2)OCO3)C(=O)c2ccccc21 |  |  |  |  |  |  | inactive | inactive | inactive | inactive
O=C(Nc1ccc(NC2=C(Cl)C(=O)c3ccccc3C2=O)cc1)c1ccccn1 |  |  |  |  |  |  | inactive | inactive | inactive | inactive
COc1ccc(CC(=O)Nc2ccc(NC3=C(Cl)C(=O)c4ccccc4C3=O)cc2)cc1 |  |  |  |  |  |  | inactive | inactive | inactive | inactive
O=C1C(Cl)=C(Nc2ccc(S(=O)(=O)Nc3ccccn3)cc2)C(=O)c2ccccc21 | 12.2 µM | 10.8 µM | 9.57 µM | 11.7 µM | inactive | 18.6 µM |  |  |  | 
O=C1C(Cl)=C(NCCN2CCOCC2)C(=O)c2ccccc21 |  |  |  |  |  |  | inactive | inactive | inactive | inactive
O=C1C(Cl)=C(NCCc2cccs2)C(=O)c2ccccc21 |  |  |  |  |  |  | inactive | inactive | inactive | inactive
O=C1C(Cl)=C(Nc2ccc(Oc3ccccc3)cc2)C(=O)c2ccccc21 | 2.9 µM | 4.55 µM | 8.12 µM | 1.3 µM | inactive |  |  |  |  | 
O=C1C(Cl)=C(NCCCN2CCCC2=O)C(=O)c2ccccc21 | 20.4 µM | 18.1 µM | 16.2 µM | 19.1 µM | inactive |  |  |  |  | 
